# Read-outs that look alike come from different tables or passages of the source.
# Tested on: 407 cancer cell lines
# Test: Cell viability of cancer cell lines (IC50), CellTiter-Glo Viability Assay, 96 h
# Format: cell-based
# Settings: for IC50: read-out: Absolute IC50
# Protocol: Viability was determined by using the 50% inhibitory concentration (IC50) as determined with the CellTiter-Glo® Viability Assay (Promega).
# Experiments were initiated by first thawing and equilibrating the CellTiter-Glo® Buffer to room temperature. The lyophilized CellTiter-Glo® Substrate was also equilibrated to room temperature. The lyophilized substrate was reconstituted with the CellTiter-Glo® buffer to form the CellTiter-Glo® Reagent.
# Cells were harvested during the logarithmic growth period, counted, and the cell concentration adjusted to 4.44×10^4 cells/mL using culture medium.
# Cells were allowed to grow overnight and the following day, the TO reading was obtained by adding 10 μL culture medium to each well of Plate A. The plate was allowed to equilibrate at room temperature for thirty minutes, after which 50 μL CellTiter-Glo® reagent was added to each well. The contents were mixed for 5 min on an orbital shaker to induce cell lysis. Plates were incubated for 20 minutes to stabilize the luminescent signal and the TO luminescence recorded.
# Test plate B was incubated for 96 h in the humidified incubator at 37° C. with 5% CO2.
# Following the incubation, the plate was equilibrated at room temperature for thirty minutes. CellTiter-Glo® (50 μL) was added to each well of the plate and contents mixed for five minutes on an orbital shaker to induce cell lysis. The luminescent signal was allowed to stabilize at room temperature for 20 minutes and the luminescence recorded.
# IC50 (EC50) was calculated using a dose-response curve, fitted using a nonlinear regression model with a sigmoidal dose response. Survival rate was calculated using the formula:
# The Surviving rate (%)=(LumTest article−LumMedium control)/(LumNon-treated−LumMedium control)×100%.
# Absolute IC50 (EC50) was calculated according to the dose-response curve generated by the statistical software (GraphPad Prism 5.0).
smiles,measurement,setting,value
"N.N.[Cl][Pt][Cl] [Cisplatin, reference compound]",IC50,"MV-4-11 cells, 96 h",0.41 µM
same,IC50,MX-1,2.39 µM
same,IC50,Molt-4,0.7 µM
same,IC50,MsTo 211H,2.5 µM
same,IC50,NAMALWA CSN/70,0.28 µM
same,IC50,"NAMALWA cells, 96 h",0.63 µM
same,IC50,"NB4 cells, 96 h",0.84 µM
same,IC50,"NCI-H23 cells, 96 h",0.75 µM
same,IC50,"NCI-H69 cells, 96 h",3.28 µM
same,IC50,"NCI-H82, 96 h",1.83 µM
same,IC50,"NCI-H146 cells, 96 h",1.81 µM
same,IC50,NCI-H187,0.68 µM
same,IC50,"NCI-H209 cells, 96 h",0.44 µM
same,IC50,NCI-H226,3.56 µM
same,IC50,"NCI-H292 cells, 96 h",2.25 µM
same,IC50,"NCI-H322 cells, 96 h",10.8 µM
same,IC50,"NCI-H358 cells, 96 h",6.07 µM
same,% inhibition at top conc.,"NCI-H441 cells, 96 h",74.99%
same,IC50,"NCI-H441 cells, 96 h",6.18 µM
same,IC50,"NCI-H446 cells, 96 h",1.93 µM
same,IC50,"NCI-H460 cells, 96 h",2.77 µM
same,IC50,"NCI-H508 cells, 96 h",8.02 µM
same,IC50,"NCI-H520 cells, 96 h",10.7 µM
same,IC50,"NCI-H522 cells, 96 h",4.49 µM
same,IC50,"NCI-H526 cells, 96 h",0.33 µM
same,IC50,NCI-H596,2.06 µM
same,IC50,"NCI-H661 cells, 96 h",6.42 µM
same,IC50,"NCI-H716 cells, 96 h",8.99 µM
same,IC50,"NCI-H727 cells, 96 h",13.2 µM
same,IC50,"NCI-H747 cells, 96 h",7.3 µM
same,IC50,"NCI-H820 cells, 96 h",0.79 µM
same,IC50,NCI-H929,3.07 µM
same,IC50,"NCI-H1048 cells, 96 h",1.37 µM
same,IC50,"NCI-H1155 cells, 96 h",2.15 µM
same,IC50,"NCI-H1299 cells, 96 h",2.67 µM
same,IC50,NCI-H1373,1.45 µM
same,IC50,NCI-H1395,2.91 µM
same,IC50,NCI-H1435,14.8 µM
same,IC50,"NCI-H1437 cells, 96 h",5.67 µM
same,IC50,NCI-H1563,16.9 µM
same,IC50,"NCI-H1568 cells, 96 h",0.95 µM
same,IC50,"NCI-H1573 cells, 96 h",10.6 µM
same,IC50,"NCI-H1581 cells, 96 h",2.98 µM
same,IC50,"NCI-H1648 cells, 96 h",8.25 µM
same,IC50,NCI-H1650,5.12 µM
same,IC50,"NCI-H1651 cells, 96 h",0.62 µM
same,IC50,"NCI-H1666 cells, 96 h",6.16 µM
same,IC50,NCI-H1688,13.8 µM
same,IC50,"NCI-H1703 cells, 96 h",6.11 µM
same,IC50,"NCI-H1781 cells, 96 h",0.64 µM
same,IC50,"NCI-H1838 cells, 96 h",6.41 µM
same,IC50,"NCI-H1915 cells, 96 h",5.23 µM
same,IC50,"NCI-H1975 cells, 96 h",3.24 µM
same,IC50,"NCI-H1993 cells, 96 h",10.4 µM
same,IC50,NCI-H2009,16.7 µM
same,IC50,NCI-H2052,5.77 µM
same,IC50,"NCI-H2087 cells, 96 h",1.01 µM
same,IC50,"NCI-H2122 cells, 96 h",8.93 µM
same,IC50,"NCI-H2170 cells, 96 h",1.02 µM
same,IC50,"NCI-H2228 cells, 96 h",4.6 µM
same,% inhibition at top conc.,NCI-H2452,80.91%
same,IC50,NCI-H2452,35.5 µM
same,IC50,"NCI-H3122 cells, 96 h",5.73 µM
same,IC50,"NCI-N87, 96 h",0.95 µM
same,IC50,NK-92MI,1.2 µM
same,IC50,NOZ,1.19 µM
same,IC50,"NUGC-3 cells, 96 h",0.25 µM
same,IC50,"NUGC-4 cells, 96 h",3.65 µM
same,IC50,OCI-AML3,2.34 µM
same,IC50,"OCI-LY7 cells, 96 h",1.81 µM
same,IC50,OCUG-1,16.3 µM
same,IC50,"OCUM-1 cells, 96 h",9.94 µM
same,IC50,"OCUM-2D cells, 96 h",2.59 µM
same,IC50,"OCUM-2M cells, 96 h",3.62 µM
same,% inhibition at top conc.,"OE19, 96 h",81.07%
same,IC50,"OE19, 96 h",19.4 µM
same,IC50,OPM2,0.79 µM
same,IC50,OS-RC-2,3.5 µM
same,IC50,"OSC-19 cells, 96 h",8.56 µM
same,IC50,"OVCAR-3 cells, 96 h",5.11 µM
same,IC50,"OVCAR-8 cells, 96 h",3.13 µM
same,IC50,OZ,15 µM
same,IC50,PANC-1,4.61 µM
same,IC50,PC-3,4.66 µM
same,IC50,"PC-9 cells, 96 h",1.97 µM
same,IC50,PEER,2.04 µM
same,IC50,PL45,1.76 µM
same,IC50,PLC/PRF/5,8.47 µM
same,IC50,"Pfeiffer cells, 96 h",1.99 µM
same,IC50,"RBE cells, 96 h",4.14 µM
same,IC50,RD-ES,0.8 µM
same,IC50,RKO,3.08 µM
same,IC50,"RPMI 8226 cells, 96 h",4.04 µM
same,IC50,"RPMI-2650 cells, 96 h",1.89 µM
same,IC50,RS4;11,0.33 µM
same,IC50,"RT4 cells, 96 h",4.2 µM
same,IC50,RT112/84,0.93 µM
same,IC50,"Raji cells, 96 h",2.07 µM
same,IC50,"Ramos cells, 96 h",0.64 µM
same,IC50,Reh,0.43 µM
same,IC50,"SCC-4, 96 h",2.96 µM
same,IC50,"SCC-9 cells, 96 h",8.37 µM
same,IC50,"SCC-15 cells, 96 h",3.3 µM
same,IC50,"SCH cells, 96 h",6.82 µM
same,IC50,"SF268 cells, 96 h",1.43 µM
same,IC50,"SF-126 cells, 96 h",1.95 µM
same,IC50,SF-763,7.56 µM
same,IC50,SH-SY5Y,0.27 µM
same,IC50,SJSA-1,3.29 µM
same,IC50,SK-BR-3,0.6 µM
same,IC50,"SK-CO-1 cells, 96 h",0.21 µM
same,IC50,"SK-HEP-1 cells, 96 h",13.2 µM
same,IC50,"SK-LU-1 cells, 96 h",1.38 µM
same,IC50,"SK-MEL-5, 96 h",3.2 µM
same,IC50,"SK-MEL-28, 96 h",5.62 µM
same,IC50,SK-MES-1,2.63 µM
same,IC50,"SK-N-FI cells, 96 h",1.34 µM
same,IC50,SK-N-SH,0.36 µM
same,IC50,"SK-NEP-1 cells, 96 h",0.6 µM
same,IC50,"SK-OV-3 cells, 96 h",2.88 µM
same,IC50,"SK-UT-1 cells, 96 h",6.94 µM
same,IC50,"SNU-1 cells, 96 h",2.15 µM
same,IC50,"SNU-5, 96 h",2.1 µM
same,IC50,SNU-81,3.7 µM
same,IC50,"SNU-216 cells, 96 h",6.07 µM
same,IC50,SNU-354,13.8 µM
same,% inhibition at top conc.,SNU-368,81.47%
same,IC50,SNU-368,20.2 µM
same,IC50,SNU-387,43.4 µM
same,IC50,SNU-398,4.9 µM
same,IC50,"SNU-423 cells, 96 h",6.06 µM
same,IC50,SNU-449,3.52 µM
same,IC50,"SNU-475 cells, 96 h",0.52 µM
same,IC50,"SNU-484 cells, 96 h",4.96 µM
same,IC50,"SNU-601 cells, 96 h",0.6 µM
same,IC50,"SNU-620 cells, 96 h",7.03 µM
same,IC50,"SNU-638 cells, 96 h",4.48 µM
same,IC50,"SNU-668 cells, 96 h",4.96 µM
same,IC50,"SNU-719 cells, 96 h",13.3 µM
same,IC50,SNU-739,0.81 µM
same,IC50,"SNU-761 cells, 96 h",1.39 µM
same,IC50,"SNU-2535 cells, 96 h",16.3 µM
same,IC50,SNU-C2A,1.77 µM
same,IC50,"SNU-C5 cells, 96 h",2.36 µM
same,IC50,"ST486 cells, 96 h",0.26 µM
same,IC50,SU-DHL-1,0.28 µM
same,IC50,SU-DHL-4,0.34 µM
same,IC50,"SU-DHL-5 cells, 96 h",0.5 µM
same,IC50,"SU-DHL-6 cells, 96 h",1.85 µM
same,IC50,SU-DHL-8,0.7 µM
same,IC50,SUM159PT,3.15 µM
same,IC50,SUP-B15,1.39 µM
same,IC50,"SW48 cells, 96 h",1.27 µM
same,IC50,"SW 156 cells, 96 h",1.03 µM
same,IC50,SW480,1.82 µM
same,IC50,"SW579 cells, 96 h",1.41 µM
same,IC50,"SW626 cells, 96 h",3.97 µM
same,IC50,"SW684 cells, 96 h",33.4 µM
same,% inhibition at top conc.,"SW756 cells, 96 h",84.79%
same,IC50,"SW780 cells, 96 h",1.98 µM
same,IC50,"SW837 cells, 96 h",4.21 µM
same,IC50,"SW948 cells, 96 h",17.8 µM
same,IC50,"SW1116 cells, 96 h",7.94 µM
same,% inhibition at top conc.,SW1271,85.04%
same,IC50,SW1271,17.1 µM
same,IC50,"SW1417 cells, 96 h",6.91 µM
same,IC50,SW1990,0.85 µM
same,IC50,SW-13,1.38 µM
same,IC50,"SiHa cells, 96 h",10.5 µM
same,IC50,"T24 cells, 96 h",1.04 µM
same,IC50,T47D,5.25 µM
same,IC50,T84,3.17 µM
same,IC50,TF-1,5.11 µM
same,IC50,"TJ905 cells, 96 h",9.46 µM
same,IC50,"TT cells, 96 h",28.1 µM
same,IC50,"Toledo cells, 96 h",0.49 µM
same,IC50,"U251 cells, 96 h",3.52 µM
same,IC50,U266B1,4.53 µM
same,IC50,"U-87 MG cells, 96 h",4.05 µM
same,IC50,"U-2932 cells, 96 h",0.79 µM
same,IC50,"UACC-812 cells, 96 h",4.61 µM
same,IC50,"UO.31 cells, 96 h",4.4 µM
same,IC50,"WM-266-4 cells, 96 h",3.12 µM
same,IC50,"WSU-DLCL2 cells, 96 h",1.37 µM
same,IC50,"WSU-NHL cells, 96 h",0.23 µM
same,IC50,"Y-79 cells, 96 h",4.56 µM
same,IC50,"YCC-1 cells, 96 h",6.62 µM
same,IC50,"YCC-2 cells, 96 h",0.72 µM
same,IC50,"YCC-6 cells, 96 h",2.62 µM
same,IC50,"YCC-10, 96 h",0.69 µM
same,IC50,"YCC-11 cells, 96 h",0.62 µM
same,IC50,Z-138,1.02 µM
same,IC50,ZR-75-1,5.73 µM
same,IC50,"ZR-75-30, 96 h",2.99 µM

# Source: US20210278408A1, “METHODS OF TREATMENT OF CANCER WITH SUBSTITUTED PYRROLE AND PYRAZOLE COMPOUNDS AND DIAGNOSIS OF CANCERS SUSCEPTIBLE TO TREATMENT WITH SUBSTITUTED PYRROLE AND PYRAZOLE COMPOUNDS” (Bantam Pharmaceutical, LLC, priority 2018, published 2021)
